# Tested on: patients with hypercholesterolemia at high CV risk not adequately controlled with rosuvastatin (10 mg or 20 mg)
# Assay: Example 3: randomized, double-blind trial, lipid efficacy of mAb316P add-on to rosuvastatin vs EZE add-on or rosuvastatin dose doubling
# Type: in vivo, human
# Conditions: for Proportion of Patients Reaching LDL-C goal (%) / LDL-C W24 % change from baseline, LS mean (SE): week 24; for Proportion of Patients Reaching LDL-C goal (%): LDL-C <70 mg/dL very high risk or <100 mg/dL high risk; for LDL-C W24 % change from baseline, LS mean (SE): ITT population, treatment arm as labelled
# [1] = Week 4, baseline rosuvastatin 10 mg
# [2] = Week 4, baseline rosuvastatin 20 mg
# [3] = Week 8, baseline rosuvastatin 10 mg
# [4] = Week 8, baseline rosuvastatin 20 mg
# [5] = Week 12, baseline rosuvastatin 10 mg
# [6] = Week 12, baseline rosuvastatin 20 mg
# [7] = Week 16, baseline rosuvastatin 10 mg
# [8] = Week 16, baseline rosuvastatin 20 mg
# [9] = Week 24, baseline rosuvastatin 10 mg
# [10] = Week 24, baseline rosuvastatin 20 mg
smiles,measurement,setting,value
"CC(C)c1nc(N(C)S(C)(=O)=O)nc(-c2ccc(F)cc2)c1/C=C/[C@@H](O)C[C@@H](O)CC(=O)O [rosuvastatin, reference compound]",Proportion of Patients Reaching LDL-C goal (%),Baseline Rosuvastatin 10 mg,45.0%
same,Proportion of Patients Reaching LDL-C goal (%),Baseline Rosuvastatin 20 mg,40.1%
same,Calculated LDL-C LS mean (SE) Value,"Baseline, baseline rosuvastatin 10 mg",105.9 (5.2) mg/dL
same,Calculated LDL-C LS mean (SE) Value,"Baseline, baseline rosuvastatin 20 mg",113.7 (6.0) mg/dL
same,"LDL-C W24 % change from baseline, LS mean (SE)",listed as RSV 20,−16.3%
same,"LDL-C W24 % change from baseline, LS mean (SE)",listed as RSV 40,−15.9%
same,Calculated LDL-C LS mean (SE) Value,[1],89.1 (3.6) mg/dL
same,"Calculated LDL-C LS mean (SE), % Change from Baseline",[1],−13.1 (3.2) %
same,"Calculated LDL-C LS mean (SE), Change from Baseline",[1],−16.2 (3.6)
same,Calculated LDL-C LS mean (SE) Value,[2],92.0 (3.4) mg/dL
same,"Calculated LDL-C LS mean (SE), % Change from Baseline",[2],−20.0 (5.3) %
same,"Calculated LDL-C LS mean (SE), Change from Baseline",[2],−25.1 (3.4)
same,Calculated LDL-C LS mean (SE) Value,[3],85.4 (4.3) mg/dL
same,"Calculated LDL-C LS mean (SE), % Change from Baseline",[3],−17.0 (3.8) %
same,"Calculated LDL-C LS mean (SE), Change from Baseline",[3],−19.9 (4.3)
same,Calculated LDL-C LS mean (SE) Value,[4],91.9 (4.3) mg/dL
same,"Calculated LDL-C LS mean (SE), % Change from Baseline",[4],−21.2 (5.7) %
same,"Calculated LDL-C LS mean (SE), Change from Baseline",[4],−25.2 (4.3)
same,Calculated LDL-C LS mean (SE) Value,[5],85.7 (4.1) mg/dL
same,"Calculated LDL-C LS mean (SE), % Change from Baseline",[5],−17.1 (4.1) %
same,"Calculated LDL-C LS mean (SE), Change from Baseline",[5],−19.6 (4.1)
same,Calculated LDL-C LS mean (SE) Value,[6],90.4 (4.3) mg/dL
same,"Calculated LDL-C LS mean (SE), % Change from Baseline",[6],−22.1 (5.3) %
same,"Calculated LDL-C LS mean (SE), Change from Baseline",[6],−26.6 (4.3)
same,Calculated LDL-C LS mean (SE) Value,[7],83.6 (4.7) mg/dL
same,"Calculated LDL-C LS mean (SE), % Change from Baseline",[7],−19.3 (4.8) %
same,"Calculated LDL-C LS mean (SE), Change from Baseline",[7],−21.6 (4.7)
same,Calculated LDL-C LS mean (SE) Value,[8],93.8 (4.8) mg/dL
same,"Calculated LDL-C LS mean (SE), % Change from Baseline",[8],−18.5 (6.3) %
same,"Calculated LDL-C LS mean (SE), Change from Baseline",[8],−23.3 (4.8)
same,Calculated LDL-C LS mean (SE) Value,[9],85.4 (4.3) mg/dL
same,"Calculated LDL-C LS mean (SE), % Change from Baseline",[9],−16.3 (4.1) %
same,"Calculated LDL-C LS mean (SE), Change from Baseline",[9],−19.9 (4.3)
same,Calculated LDL-C LS mean (SE) Value,[10],95.5 (5.7) mg/dL
same,"Calculated LDL-C LS mean (SE), % Change from Baseline",[10],−15.9 (7.1) %
same,"Calculated LDL-C LS mean (SE), Change from Baseline",[10],−21.5 (5.7)
same,proportion of patients who reached LDL-C level of <70 mg/dL (1.81 mmol/L) at Week 24,baseline rosuvastatin 10 mg regimen,31.3%
same,proportion of patients who reached LDL-C level of <70 mg/dL (1.81 mmol/L) at Week 24,baseline rosuvastatin 20 mg regimen,29.9%
